Reference: the supplement of paper PMC13380429

Columns and labels:
[1] = test system: A549-ACE2 infected with SARS-CoV-2; assay: cell count relative to DMSO; higher = less toxic; details: 24 h
A549-ACE2 = assay: drug-induced phospholipidosis relative to tamoxifen; higher = more phospholipidosis
HepG2 [2] = assay: cell viability relative to DMSO; higher = less toxic; details: 72 h
U2OS [3] = assay: as above; details: 72 h
Vero E6 [4] = assay: as above; details: 72 h
Calu-3 [5] = assay: as above; details: 72 h
Caco-2 [6] = assay: as above; details: 72 h
HepG2 [7] = assay: drug sensitivity score (DSS) for viability; higher = more toxic; extreme values may be limits of the assay; details: 72 h
U2OS [8] = assay: as above; details: 72 h
Vero E6 [9] = assay: as above; details: 72 h
Calu-3 [10] = assay: as above; details: 72 h
Caco-2 [11] = assay: as above; details: 72 h
[12] = test system: A549-ACE2 infected with SARS-CoV-2; assay: morphology score (similarity to uninfected cells); higher = more like uninfected cells; details: 24 h
Calu-3 [13] = assay: relative viability EC50 (midpoint between 100% and the lowest measured viability); higher = less toxic; details: 72 h
Caco-2 [14] = assay: as above; details: 72 h
[15] = test system: A549-ACE2 infected with SARS-CoV-2; assay: SARS-CoV-2 infection rate relative to DMSO; higher = more infection; details: 24 h
HepG2 [16] = assay: relative viability EC50 (midpoint between 100% and the lowest measured viability); higher = less toxic; details: 72 h
U2OS [17] = assay: as above; details: 72 h
Vero E6 [18] = assay: as above; details: 72 h

CCn1c(-c2nonc2N)nc2cncc(C(=O)N3CC[C@H](N)C3)c21
Details | SARS-CoV-2 infection rate, [15] [%] | cell count, [1] [%] | cell viability, Caco-2 [6] [%] | cell viability, Calu-3 [5] [%] | cell viability, HepG2 [2] [%] | cell viability, U2OS [3] [%] | cell viability, Vero E6 [4] [%] | morphology score, [12]
1 nM | – | – | 98.7 | 104 | 99.3 | 103 | 107 | –
10 nM | – | – | 99.1 | 94 | 108 | 99.1 | 106 | –
0.1 µM | 103 | 104 | – | – | – | – | – | 0.19
100 nM | – | – | 98.1 | 107 | 95.9 | 101 | 95.3 | –
0.3 µM | 105 | 110 | – | – | – | – | – | 0.18
1 µM | 109 | 91 | – | – | – | – | – | -0.07
1000 nM | – | – | 93.5 | 127 | 88.2 | 88.2 | 84.6 | –
3 µM | 105 | 73 | – | – | – | – | – | -0.12
10000 nM | – | – | 84.2 | 124 | 71.8 | 60.5 | 52.2 | –

drug-induced phospholipidosis [%], A549-ACE2
Details | 0.3 µM | 0.833333 µM | 3.33333 µM | 6.66667 µM | 10 µM | 30 µM
24 h | 0.14 | 1.05 | -2.9 | -4.65 | -1.66 | 4.03
48 h | 0.57 | 0.37 | -3.24 | -3.77 | -1.92 | 7.82
72 h | 0.439 | -0.392 | -3.22 | -2.1 | – | –

Details | drug sensitivity score | relative viability EC50 [µM]
Caco-2 [11] | 0.5 | –
Caco-2 [14] | – | > 10
Calu-3 [10] | 0 | –
Calu-3 [13] | – | > 10
HepG2 [7] | 2.2 | –
U2OS [8] | 3.7 | –
Vero E6 [9] | 4.4 | –

Cc1ccc(NC(=O)c2ccc(CN3CCN(C)CC3)cc2)cc1Nc1nc(-c2cccnc2)cs1 [masitinib]
Details | SARS-CoV-2 infection rate, [15] [%] | cell count, [1] [%] | cell viability, Caco-2 [6] [%] | cell viability, Calu-3 [5] [%] | cell viability, HepG2 [2] [%] | cell viability, U2OS [3] [%] | cell viability, Vero E6 [4] [%] | morphology score, [12]
1 nM | – | – | 104 | 107 | 105 | 106 | 105 | –
10 nM | – | – | 99.5 | 88 | 103 | 101 | 102 | –
100 nM | – | – | 99.1 | 97.4 | 99.6 | 104 | 101 | –
0.3 µM | 98 | 88 | – | – | – | – | – | 0.14
1000 nM | – | – | 97.3 | 97.9 | 101 | 98 | 98 | –
10000 nM | – | – | 72 | 75.1 | 43.9 | 93.2 | 88.9 | –

A549-ACE2, 0.3 µM
Details | drug-induced phospholipidosis [%]
24 h | -0.73
48 h | 0.9
72 h | 2.47

Details | drug sensitivity score | relative viability EC50 [µM]
Caco-2 [11] | 1.6 | –
Calu-3 [10] | 1.2 | –
Calu-3 [13] | – | > 10
HepG2 [7] | 2.9 | –
HepG2 [16] | – | 3.29
U2OS [8] | 0 | –
U2OS [17] | – | > 10
Vero E6 [9] | 0.1 | –
Vero E6 [18] | – | > 10

CCCCn1c(=O)c2[nH]c(C34CC5CC(CC3C5)C4)nc2n(CCCO)c1=O [PSB-36]
cell viability [%]
Details | Caco-2 [6] | Calu-3 [5] | HepG2 [2] | U2OS [3] | Vero E6 [4]
1 nM | 96.5 | 99 | 105 | 98.5 | 99.3
10 nM | 102 | 93.4 | 95.4 | 98.9 | 93.5
100 nM | 98 | 98.7 | 103 | 88.6 | 98.1
1000 nM | 101 | 91 | 99.3 | 89.1 | 84.9
10000 nM | 91.9 | 80.4 | 97.3 | 86 | 100

Details | drug sensitivity score | relative viability EC50 [µM]
Caco-2 [11] | 0 | –
Caco-2 [14] | – | > 10
Calu-3 [10] | 1.1 | –
Calu-3 [13] | – | > 10
HepG2 [7] | 0 | –
HepG2 [16] | – | > 10
U2OS [8] | 1.7 | –
U2OS [17] | – | > 10
Vero E6 [9] | 0 | –
Vero E6 [18] | – | > 10

COc1ccc2c(c1)C(C(=O)N(Cc1ccc(N(C)C)cc1)c1ccc(C(C)C)cc1)CCC2 (stereo not given)
cell viability [%]
Details | Caco-2 [6] | Calu-3 [5] | HepG2 [2] | U2OS [3] | Vero E6 [4]
1 nM | 105 | 90.3 | 99.8 | 102 | 101
10 nM | 96.3 | 98.9 | 109 | 100 | 103
100 nM | 105 | 96.9 | 98.5 | 102 | 99.3
1000 nM | 95.9 | 88 | 109 | 98.2 | 103
10000 nM | 75.5 | 107 | 102 | 100 | 105

Details | drug sensitivity score | relative viability EC50 [µM]
Caco-2 [11] | 1.5 | –
Caco-2 [14] | – | > 10
Calu-3 [10] | 0 | –
Calu-3 [13] | – | > 10
HepG2 [7] | 0 | –
HepG2 [16] | – | > 10
U2OS [8] | 0 | –
U2OS [17] | – | > 10
Vero E6 [9] | 0 | –
Vero E6 [18] | – | > 10

CC1=C(C(=O)O)N2C(=O)[C@@H](NC(=O)[C@H](N)c3ccc(O)cc3)[C@H]2SC1 [cefadroxil]
cell viability [%]
Details | Caco-2 [6] | Calu-3 [5] | HepG2 [2] | U2OS [3] | Vero E6 [4]
1 nM | 92.8 | 100 | 90.4 | 101 | 89.4
10 nM | 93.5 | 99.1 | 101 | 96.2 | 101
100 nM | 93.1 | 107 | 95.6 | 99.4 | 91.8
1000 nM | 85.7 | 93.2 | 103 | 97 | 98.1
10000 nM | 99.1 | 106 | 105 | 103 | 104

Details | drug sensitivity score | relative viability EC50 [µM]
Caco-2 [11] | 0 | –
Caco-2 [14] | – | > 10
Calu-3 [10] | 0 | –
Calu-3 [13] | – | > 10
HepG2 [7] | 0 | –
HepG2 [16] | – | > 10
U2OS [8] | 0 | –
U2OS [17] | – | > 10
Vero E6 [9] | 0 | –
Vero E6 [18] | – | > 10

CC(=O)NCCCS(=O)(=O)O [acamprosate]
cell viability [%]
Details | Caco-2 [6] | Calu-3 [5] | HepG2 [2] | U2OS [3] | Vero E6 [4]
1 nM | 109 | 104 | 111 | 95.7 | 102
10 nM | 102 | 102 | 98.1 | 99.3 | 99.5
100 nM | 101 | 97.9 | 94.5 | 99.3 | 106
1000 nM | 96.3 | 105 | 90.2 | 102 | 103
10000 nM | 114 | 103 | 110 | 99.2 | 103

Details | drug sensitivity score | relative viability EC50 [µM]
Caco-2 [11] | 0 | –
Caco-2 [14] | – | > 10
Calu-3 [10] | 0 | –
Calu-3 [13] | – | > 10
HepG2 [7] | 0 | –
HepG2 [16] | – | > 10
U2OS [8] | 0 | –
U2OS [17] | – | > 10
Vero E6 [9] | 0 | –
Vero E6 [18] | – | > 10
